Columns and labels:
[1] = Oral pharmacokinetics of ChA in beagle plasma; type: in vivo, beagles; conditions: dog, 60 mg/kg
[2] = Stability of ChA in beagle urine under various storage conditions; type: in vitro ADME
[3] = Stability of ChA in beagle faeces under various storage conditions; type: in vitro ADME

- AUC(0-inf) [1]: 6320 ± 1850 ng·h/mL
- AUC(0-t) [1]: 5590 ± 1410 ng·h/mL
- Cmax [1]: 2350 ± 483 ng/mL
- Tmax [1]: 1.86 ± 0.499 h
- half-life [1]: 0.911 ± 0.187 h
- time ChA was stable ([2]; processed urine, 4 °C): at least 8 h
- time ChA was stable ([2]; urine, room temperature): ≥ 6 h
- time ChA was stable ([2]; urine, −70 °C): at least 20 d
- time ChA was stable ([3]; faeces, room temperature): ≥ 6 h
- time ChA was stable ([3]; faeces, −70 °C): ≥ 170 h
- time ChA was stable ([3]; processed faeces, 4 °C): at least 8 h
Structure (SMILES): O=C(/C=C/c1ccc(O)c(O)c1)O[C@@H]1C[C@](O)(C(=O)O)C[C@@H](O)[C@H]1O [ChA, Chlorogenic acid]

Source: article PMC6130634 (Pharmaceutical Biology, 2017)
